Where two headings read alike, the source gives them in different places.
Key:
[1] = tested on: patients with a diagnosis of epilepsy; details: human, in vivo
From the text: In this study we have considered the known functional alleles *2 and *3 at the CYP2C9 gene, and the putatively functional 3435C>T polymorphism in the ABCB1 gene. As no common functional variants are known for SCN1A, we used a haplotype tagging strategy (Weale et al., Am J. Hum. Genet. 73, 551-565, 2003). […] For carbamazepine, we related variation in both SCN1A and ABCB1 to maximum dose in 425 patients. Finally, we tested for association with presence or absence of ADRs. […] In most, but not all cases the maximum dose used here will also be the maintenance dose, since starting doses tend to be lower than what is required (see discussion below).
The study was approved by the relevant institutional Ethics Committees. Patients who self-identified, or were determined by the treating physician, as being of North Western European origin with a diagnosis of epilepsy were recruited from the specialised epilepsy clinic of the National Hospital for Neurology and Neurosurgery after written informed consent was obtained. Extensive clinical data were obtained and stored in a computerized database. […]
The following clinical details were recorded whenever available: date when phenytoin/carbamazepine was started and stopped, maximum dosage reached, response and occurrence of ADRs. […]

CYP2C9*2 = CYP2C9*2 (Homo sapiens, UniProt P11712, R144C); details: in vitro expression; cited from earlier work
[2] = cited from earlier work; for Serum concentrations of phenytoin: single dose, healthy volunteers
CYP2C9 = CYP2C9 (Homo sapiens, UniProt P11712); details: estimated; cited from earlier work

Row | Average dose range across genotypes [1] [mg] | SMILES | Reduction in phenytoin clearance compared to *1 (CYP2C9*2) [% reduction in] | Serum concentrations of phenytoin ([2]; *2 carriers) | Maximal elimination rates ([2]; *3 carriers compared with *1/1 patients) | Serum concentrations of phenytoin ([2]; *3 carriers) | Share of phenytoin inactivation for which CYP2C9 is responsible (CYP2C9)
1 | 230 | NC(=O)N1c2ccccc2C=Cc2ccccc21 [carbamazepine, 5H-dibenz[b,f]azepine-5-carboxamide] | – | – | – | – | –
2 | 127 | O=C1NC(=O)C(c2ccccc2)(c2ccccc2)N1 [phenytoin, 5,5-diphenylhydantoin] | 29 | *2 carriers have increased serum | *3 carriers have significantly lower | patients(33, 34) and increased serum | up to 90%

Reference: US20060269935A1, “Genetic predictor for clinical use of drugs used in the treatment of neurological conditions” (UCL Biomedica PLC, priority 2005, published 2006)
